From the supplement of paper PMC4862054

Assays:
Settings in all cases: incubation time: 72 h
HCC1143 [1] = assay: normalised viability (% of control), CellTiter-Blue; higher = more viable cells (about 100 = DMSO control)
Method in brief: (§1)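 Plates were quality-checked by Z'-factor and normalised to vehicle (100) and a positive kill control (0). The underlying assay incubated breast cancer cell lines for 72 h on 384-well plates with compound, then added 2.5 µl CellTiter-Blue for 2 h at 37 °C and read at 560/590 nm. The value is normalised viability at a single listed concentration of the series.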

BT-549 [2] = assay: as above
Method in brief: as §1

HCC1937 = assay: as above
Method in brief: as §1

DU-4475 [3] = assay: as above
Method in brief: as §1

MDA-MB-231 [4] = assay: as above
Method in brief: as §1

MFM-223 = assay: as above
Method in brief: as §1

Hs578T [5] = assay: as above
Method in brief: as §1

CAL-51 = assay: as above
Method in brief: as §1

CAL-148 [6] = assay: as above
Method in brief: as §1

MDA-MB-453 [7] = assay: as above
Method in brief: as §1

HDQ-P1 [8] = assay: as above
Method in brief: as §1

HCC1143 [9] = assay: drug sensitivity score (DSS), CellTiter-Glo (DSS (AUC-based score)); higher = stronger drug effect (viability inhibition or cytotoxicity); extreme values may be limits of the assay
Method in brief: (§2)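 Breast cancer cell lines were seeded in 20 µl suspension into 384-well plates already holding compound and incubated for 72 h. Each compound was tested at 5 concentrations in 10-fold steps across its own 10,000-fold range. Plates were normalised to 0.1 % DMSO and a positive kill control after CellTox Green and then CellTiter-Glo readings. The area under the fitted dose-response curve served as the basis for the drug sensitivity score.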

BT-549 [10] = assay: as above
Method in brief: as §2

SK-BR-3 = assay: as above
Method in brief: as §2

DU-4475 [11] = assay: as above
Method in brief: as §2

MDA-MB-231 [12] = assay: as above
Method in brief: as §2

CAL-120 = assay: as above
Method in brief: as §2

MDA-MB-468 = assay: as above
Method in brief: as §2

Hs578T [13] = assay: as above
Method in brief: as §2

BT-474 = assay: as above
Method in brief: as §2

CAL-148 [14] = assay: as above
Method in brief: as §2

MDA-MB-453 [15] = assay: as above
Method in brief: as §2

HDQ-P1 [16] = assay: as above
Method in brief: as §2

MCF-10A = assay: as above
Method in brief: as §2

CC(C)C[C@H](NC(=O)[C@H](CCc1ccccc1)NC(=O)CN1CCOCC1)C(=O)N[C@@H](Cc1ccccc1)C(=O)N[C@@H](CC(C)C)C(=O)[C@@]1(C)CO1 [Carfilzomib]
normalised viability [%]
Settings	0.3 nM	1 nM	3 nM	10 nM	100 nM	1000 nM
BT-549 [2]	–	90	–	–	6.79	5.9
CAL-51	111	–	102	81.4	–	–
CAL-148 [6]	101	–	97.8	94.5	–	–
DU-4475 [3]	100	–	88.3	64.4	–	–
HCC1143 [1]	–	91.9	–	–	23.9	14.9
HCC1937	–	74	–	–	5.98	11
HDQ-P1 [8]	105	–	98.9	56.7	–	–
Hs578T [5]	–	126	–	–	1.45	1.15
MDA-MB-231 [4]	–	105	–	–	2.47	7.05
MDA-MB-453 [7]	115	–	38.5	17.7	–	–
MFM-223	–	83.4	–	–	13	14.4

Settings	drug sensitivity score
BT-474	21.8
BT-549 [10]	29.5
CAL-120	19
CAL-148 [14]	17.4
DU-4475 [11]	15.4
HCC1143 [9]	23.5
HDQ-P1 [16]	20.7
Hs578T [13]	22.9
MCF-10A	12.2
MDA-MB-231 [12]	21.4
MDA-MB-453 [15]	22.7
MDA-MB-468	29.9
SK-BR-3	26.9

Nc1nc(Cl)nc2c1ncn2[C@@H]1O[C@H](CO)[C@@H](O)[C@@H]1F [Clofarabine]
normalised viability [%]
Settings	3 nM	10 nM	30 nM	100 nM	1000 nM	10000 nM
BT-549 [2]	–	87.5	–	–	50.6	42.3
CAL-51	109	–	102	108	–	–
CAL-148 [6]	82.6	–	87.8	83.3	–	–
DU-4475 [3]	90.6	–	92.8	94.4	–	–
HCC1143 [1]	–	74.5	–	–	52.4	45
HCC1937	–	92.6	–	–	28.9	26.9
HDQ-P1 [8]	105	–	106	88.9	–	–
Hs578T [5]	–	98.1	–	–	67.3	61.5
MDA-MB-231 [4]	–	89.1	–	–	64.4	57.8
MDA-MB-453 [7]	102	–	105	97.9	–	–
MFM-223	–	92.6	–	–	85.3	86.2

Settings	drug sensitivity score
BT-474	5.27
BT-549 [10]	14.3
CAL-120	4.58
CAL-148 [14]	8.43
DU-4475 [11]	6.22
HCC1143 [9]	10.8
HDQ-P1 [16]	3.38
Hs578T [13]	1.74
MCF-10A	5.94
MDA-MB-231 [12]	1.71
MDA-MB-453 [15]	0
MDA-MB-468	11.7
SK-BR-3	12.7

CCN(CC)CCOc1ccc(C(=C(Cl)c2ccccc2)c2ccccc2)cc1 [Clomifene]
normalised viability [%]
Settings	3 nM	10 nM	30 nM	100 nM	1000 nM	10000 nM
BT-549 [2]	–	109	–	–	96.6	36
CAL-51	95.6	–	90.3	98.9	–	–
CAL-148 [6]	88.2	–	94.8	101	–	–
DU-4475 [3]	101	–	98.4	111	–	–
HCC1143 [1]	–	86.2	–	–	84	85.2
HCC1937	–	115	–	–	117	55.6
HDQ-P1 [8]	133	–	130	114	–	–
Hs578T [5]	–	105	–	–	121	59.8
MDA-MB-231 [4]	–	98.8	–	–	93.8	14.1
MDA-MB-453 [7]	116	–	114	104	–	–
MFM-223	–	102	–	–	106	28.3

Settings	drug sensitivity score
BT-474	4.51
BT-549 [10]	1.96
CAL-120	0
CAL-148 [14]	0
DU-4475 [11]	2.97
HCC1143 [9]	0
HDQ-P1 [16]	0
Hs578T [13]	4.79
MCF-10A	1.05
MDA-MB-231 [12]	5.02
MDA-MB-453 [15]	5.37
MDA-MB-468	0
SK-BR-3	2.09

C[C@@H]1C[C@H]2[C@@H]3CCC4=CC(=O)C=C[C@]4(C)[C@@]3(F)[C@@H](O)C[C@]2(C)[C@@]1(O)C(=O)CO [Dexamethasone]
normalised viability [%]
Settings	3 nM	10 nM	30 nM	100 nM	1000 nM	10000 nM
BT-549 [2]	–	93.6	–	–	90.3	93.5
CAL-51	106	–	91.9	95.6	–	–
CAL-148 [6]	93.6	–	108	99.2	–	–
DU-4475 [3]	90	–	86.9	98.3	–	–
HCC1143 [1]	–	76.5	–	–	89.1	81.2
HCC1937	–	82.5	–	–	100	78.9
HDQ-P1 [8]	111	–	100	108	–	–
Hs578T [5]	–	120	–	–	122	98
MDA-MB-231 [4]	–	125	–	–	111	146
MDA-MB-453 [7]	110	–	78.2	76.3	–	–
MFM-223	–	93.4	–	–	94.2	87.2

Settings	drug sensitivity score
BT-474	0
BT-549 [10]	0
CAL-120	10.1
CAL-148 [14]	0
DU-4475 [11]	0
HCC1143 [9]	0
HDQ-P1 [16]	4.16
Hs578T [13]	0
MCF-10A	0
MDA-MB-231 [12]	0
MDA-MB-453 [15]	4
MDA-MB-468	0
SK-BR-3	0
